Data on six molecules can be found in ChEMBL document CHEMBL1132893, “The design and synthesis of potent cyclic peptide VCAM-VLA-4 antagonists incorporating an achiral Asp-Pro mimetic” (Bioorg Med Chem Lett, 2000).

For test [1], the target named is T1, Integrin alpha-4 (Homo sapiens, UniProt P13612).
T1 sequence (P13612 whole entry): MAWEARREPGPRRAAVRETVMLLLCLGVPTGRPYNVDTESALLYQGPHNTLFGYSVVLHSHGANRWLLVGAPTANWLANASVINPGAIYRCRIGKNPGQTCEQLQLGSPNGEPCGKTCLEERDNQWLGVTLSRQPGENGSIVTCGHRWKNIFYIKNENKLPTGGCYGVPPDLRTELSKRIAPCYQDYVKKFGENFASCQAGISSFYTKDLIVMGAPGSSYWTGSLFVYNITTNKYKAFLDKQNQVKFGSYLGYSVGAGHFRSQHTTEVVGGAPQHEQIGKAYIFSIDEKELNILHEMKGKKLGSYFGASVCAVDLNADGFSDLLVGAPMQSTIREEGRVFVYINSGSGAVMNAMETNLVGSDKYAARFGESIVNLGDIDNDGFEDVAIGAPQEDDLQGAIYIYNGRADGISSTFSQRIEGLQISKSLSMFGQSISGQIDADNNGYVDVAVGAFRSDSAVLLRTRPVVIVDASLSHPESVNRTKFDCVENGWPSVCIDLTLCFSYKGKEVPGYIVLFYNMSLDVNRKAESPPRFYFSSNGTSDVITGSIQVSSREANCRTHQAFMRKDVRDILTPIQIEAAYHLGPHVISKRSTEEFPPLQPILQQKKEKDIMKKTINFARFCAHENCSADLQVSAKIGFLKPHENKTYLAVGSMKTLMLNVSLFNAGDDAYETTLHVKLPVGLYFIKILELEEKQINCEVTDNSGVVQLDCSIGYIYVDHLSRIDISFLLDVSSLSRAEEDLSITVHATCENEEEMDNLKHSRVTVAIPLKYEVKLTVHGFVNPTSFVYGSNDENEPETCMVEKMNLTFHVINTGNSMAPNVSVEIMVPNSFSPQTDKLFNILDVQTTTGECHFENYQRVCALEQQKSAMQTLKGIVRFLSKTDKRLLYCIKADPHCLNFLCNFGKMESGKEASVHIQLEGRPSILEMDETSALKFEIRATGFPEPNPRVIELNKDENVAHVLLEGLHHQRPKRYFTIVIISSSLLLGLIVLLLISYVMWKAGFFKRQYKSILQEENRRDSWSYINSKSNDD
Put plainly: Inhibition of VLA-4 binding to recombinant human VCAM using Solid phase assay.

The target in test [2] is T1, Integrin alpha-4. In words: Inhibition of VLA-4 binding to recombinant human VCAM using Ramos cell assay. The class given is cell-based.

What is called IC50 is the concentration that gives 50% inhibition.

With `N[C@@H](Cc1ccc(O)cc1)C(=O)N[C@H]1CSSC[C@@H](C(=O)O)NC(=O)C2(CCCC2)CCCNC1=O`, the concentration for half-maximal inhibition (IC50) at Integrin alpha-4 [1] came out at 0.019 µM; at Integrin alpha-4 [2], 0.48 µM. Regarding `CC(=O)N[C@@H](Cc1ccc(O)cc1)C(=O)N[C@H]1CSSC[C@@H](C(=O)O)NC(=O)C2(CCCC2)CCNC1=O`, the IC50 at Integrin alpha-4 [1] came out at 0.0007 µM; on Integrin alpha-4 [2], 0.012 µM. As for `N[C@@H](Cc1ccc(O)cc1)C(=O)N[C@H]1CSSC[C@@H](C(=O)O)NC(=O)C2(CCCC2)CCNC1=O`, on Integrin alpha-4 [2], the IC50 was 0.024 µM.

With `CCC1(CC)CCNC(=O)[C@@H](NC(=O)[C@@H](N)Cc2ccc(O)cc2)CSSC[C@@H](C(=O)O)NC1=O`, on Integrin alpha-4 [1], the IC50 was 0.0039 µM. For `CC1(C)CCNC(=O)[C@@H](NC(=O)[C@@H](N)Cc2ccc(O)cc2)CSSC[C@@H](C(=O)O)NC1=O`, the IC50 at Integrin alpha-4 [1] is 0.112 µM.

Turning to `N[C@@H](Cc1ccc(O)cc1)C(=O)N[C@H]1CSSC[C@@H](C(=O)O)NC(=O)C2(CCCC2)CNC1=O`, the half-inhibitory concentration (IC50) at Integrin alpha-4 [1] is 0.005 µM.
